# In patent US7964191B2, “Compositions and methods for the treatment of ophthalmic disease” (Allergan, Inc., priority 2006, dated 2011):
# Tested on: diabetic retinopathy
# Experiment: Treatment of a patient with proliferative (left eye) and non-proliferative (right eye) diabetic retinopathy
# Assay type: in vivo, human
# Conditions: Example 10
# Experimental: A person complains of vision loss in the left eye. The patient reports an onset of Type II diabetes, and has been under treatment with metformin hydrochloride for 10 years.
# The patient is given an intravitreal injection comprising 150 μl of a solution of hyaluronic acid in which biodegradable PLGA microspheres (mean particle diameter of about 40 μm; lactide to glycolide ratio 75:25) are suspended. See U.S. patent application Ser. No. 11/368,845, filed Mar. 6, 2006, incorporated by reference herein in its entirety. Approximate weight of microspheres per dose was 20 mg. In addition to the PLGA polymer, the microspheres comprise approximately 5% by weight of an SDF-1α derivative that comprises a disulfide-linked dimer comprising two identical peptides, with each peptide comprising amino acids 1-9 of SDF-1 (these positions correspond to amino acids 22-47 of SEQ ID NO: 4, 5, and 6) with glycine substituted for proline in each position 2 (corresponding to position 23 of SEQ ID NO: 4, 5, and 6).
# The patient's visual acuity (and retinal condition under dilation) are monitored every two weeks for 8 weeks.
# The patient of Example 9 is treated by subconjunctival injection in each eye (100 μl volume in hyaluronic acid solution) of a single fibrous monolithic PLGA intraocular implant (approximately 120 μg; diameter approximately 3 mm) comprising 50% by weight of a CXCR4-inhibitory compound: N-[(S)-1-(1-naphthyl)ethyl]-5-(2-methylbenzyl)amino-2-(S)-[4-[N-(imidazole-2-ylmethyl)aminomethyl]benzoyl]aminopentanoylamide (see Yamzaki et al., U.S. Publication No. 2004/0254221.
# After 8 weeks visual acuity is tested, and has improved by 2 lines in each eye.
# The patient of Example 9 is administered an intravitreal injection in each eye comprising 150 μl of a solution of hyaluronic acid in which biodegradable PLGA microspheres (mean particle diameter of about 40 μm; lactide to glycolide ratio 75:25) are suspended. Approximate weight of microspheres per dose was 20 mg. […]
compound,measurement,setting,value
Cc1ccccc1CNCCC[C@H](NC(=O)c1ccc(CNCc2ncc[nH]2)cc1)C(=O)N[C@@H](C)c1cccc2ccccc12 [N-[(S)-1-(1-naphthyl)ethyl]-5-(2-methylbenzyl)amino-2-(S)-[4-[N-(imidazole-2-ylmethyl)aminomethyl]benzoyl]aminopentanoylamide],fluorescein angiography: leakage of blood into the retina,after 6 weeks,does not reveal any leakage of blood into the retina
same,"improvement in visual acuity, each eye",after 8 weeks,2 lines
same,macular edema,"subconjunctival PLGA implant, 50% by weight compound, each eye, after 6 weeks",barely observable
